Test results from patent publication US12145947B2, “Pyrimidine based modulators and uses thereof” (Quanta Therapeutics, Inc., priority 2022, dated 2024).

Key:
[1] = target: T1, GST-tagged KRAS-G12D (2-169) (Homo sapiens, UniProt P01116, G12D); assay: Nucleotide exchange assay (NEA), SOS-mediated, HTRF, KRAS G12D; type: biochemical; details: Table 4; IC50 extracted at 30 min
T1 construct: GST-tagged KRAS-G12D (2-169, Reaction Biology, MSC-11-539); purchased Reaction Biology MSC-11-539 (KRAS G12D); MSC-11-502 (SOS1cat)
Text: This activity is tightly regulated by GTPase activating proteins (GAPs) and guanine nucleotide exchange factors (GEFs). GEFs, such as SOS1/2, activate Ras proteins by exchanging GDP for GTP, thus returning Ras to its active conformation (Simanshu, Nissley, & McCormick, 2017). […] Homogenous time resolved fluorescence (HTRF) was used to detect SOS-mediated binding of a fluorescent GTP analog, GTP-DY-647P1 (Jena Biosciences NU-820-647P1) to GST-tagged KRAS-G12D (2-169, Reaction Biology, MSC-11-539) or to GST-tagged KRAS-G12V (2-169, Reaction Biology, MSC-11-540).
GST-tagged KRAS-G12D (2-169) and anti-GST MAb Tb Cryptate Gold (CisBio 61GSTTLB) were diluted into assay buffer (20 mM HEPES, pH 7.3, 150 mM NaCl, 5 mM MgCl2, 0.05% BSA 0.0025% NP40, 1 mM DTT) to prepare a 2.5× donor solution. 5× compound was added to the protein mixture and incubated for 1 h at RT. 2.5× acceptor solution containing SOSIcat (564-1049, Reaction Biology MSC-11-502) and GTP-DY-647P1 were then added to the donor KRAS mixture such that the final concentration of the reaction contained 5 nM GST-tagged KRAS-G12D (2-169), 20 nM SOScat, and 150 nM GTP. The reaction was monitored using at RT with the Envision multimode plate reader (Ex/Em 337/665, […]) up to 90 minutes at 5 minute intervals. To monitor KRAS-G12V Sos-mediated nucleotide exchange, 80 nM SOS was added to reaction instead of 20 nM. All other components were the same as previously described. Data was blanked to reactions without SOS1 and % inhibition was calculated such that DMSO only=0% and blank=100%. Curve fitting was done using a 4 parameter fit. Reported IC50 values were extracted at 30 min and 90 min for the KRAS-G12D and KRAS-G12V assays, respectively.
Curve fitting was done using a 4 parameter fit. NEA KRAS G12D IC50 (uM) values of selected compounds are depicted in Table 2 with compounds having a value <0.01 uM as ++++; >0.01 uM to 0.1 uM as +++; >0.1 uM to 1 uM as ++; >1 uM to 20 uM as +; and >20 uM as NA.

KRAS G12D/RAF1 = target: T2, KRAS G12D/RAF1 (Homo sapiens, UniProt P01116, G12D); assay: Protein-protein interaction (PPI) HTRF assay KRAS G12D/RAF1; type: binding; details: Table 4
T2 construct: His6-MBP (N, cleaved yes); made in house; host or cells: E. coli
Method: Biotinylated KRAS wt and KRAS G12DNV proteins were expressed and purified in conditions similar to those previously reported (Tran, et al., 2021) (Zhang, et al., 2020). Briefly, KRAS (1-169) proteins were expressed in E. coli at 18° C. with an upstream TEV cleavage site (ENLFYQS (SEQ ID NO: 6)) followed an Avi tag sequence ([…] (SEQ ID NO: 7)). KRAS expression constructs contained both a His6 (SEQ ID NO: 8) and maltose-binding protein (MBP) tags at the N-terminus for Ni-NTA column purification prior to overnight TEV cleavage and MBP column purification. The avi-tagged NRAS expression construct contained both a His6 tag (SEQ ID NO: 8) and SUMO cleavage sige at the N-terminus for Ni-NTA column purification followed by His-ULPi digestion overnight. All avi-tagged RAS proteins were dialyzed into buffer containing ATP, biotin, and BirA followed by purification over a second Ni-NTA column and then run over a size exclusion HiLoad™ 26/600 Superdex™ column in 20 mM HEPES, pH 7.5, 300 mM NaCl, 5 mM MgCl2, and 1 mM TCEP. Fractions containing the protein of interest were pooled, concentrated, and confirmed by intact mass spectrometry. To prepare ‘GTP’ loaded KRAS and NRAS, biotinylated KRAS or NRAS was nucleotide exchanged from GDP-bound protein to GppNHp-bound (Jena Biosciences, NU-401-50) protein in the presence of alkaline phosphatase and excess GppNHp as previously described and the resulting nucleotide content was confirmed by HPLC reverse phase analytical chromatography (Donohue, et al., 2019) (Tran, et al., 2021).
His-tagged RAF1 (52-131) was similarly expressed in E. coli at 18° C. overnight with an upstream TEV cleavage site. His-tagged RAF1 expression construct contained both a His6 (SEQ ID NO: 8) and MBP tags at the N-terminus for Ni-NTA column purification followed by MBP-tagged TEV digestion overnight. RAF1 protein samples were further purified over a MBP column followed by a Ni-NTA column and a second MBP column. The fractions containing the protein of interest were pooled, concentrated, and further purified over a HiLoad™ 16/600 Superdex™ 75 pg size exclusion column into 20 mM HEPES, pH8.0, 200 mM NaCl, 5 mM TCEP.
When RAS proteins are in the active GTP-bound conformation, they bind the effector protein RAF1 at the N-terminus Ras-binding domain (RBD, residues 52-131) (Tran, et al., 2021). Homogenous time resolved fluorescence (HTRF) was used to monitor the interaction between wt or mutant KRAS and RAF1 or wt NRAS and RAFT. Compounds were assayed in the presence of KRAS G12D/V and RAF1 versus wt KRAS to assess activity against mutant and w.t. KRAS. Similarly, compounds were then assayed in the presence of w.t. NRAS and RAF1 to assess RAS isoform selectivity. In all assay formats, His-tagged RAF1 protein was incubated with the HTRF donor, anti-6His (“6His” disclosed as SEQ ID NO: 8) Tb Cryptate gold (Cisbio 61DB10RDF), and biotinylated RAS proteins were incubated with the HTRF acceptor, streptavidin-d2 (CisBio 610SADLA). The intensity of the fluorescence signal emitted is proportional to binding between the two proteins. The donor solution was prepared by mixing 16 nM His-tagged RAF1 in protein dilution buffer with 1:100 anti-6His (“6His” disclosed as SEQ ID NO: 8) Tb cryptate in PPI-Terbium detection buffer. 16 nM biotinylated RAS protein was diluted into protein dilution buffer (50 mM Tris-HCl pH 7.5, 150 mM NaCl, 0.1 mM MgCl2, 1 mM TCEP, 0.005% Tween20) and mixed with 1:2000 Streptavidin-d2 diluted in PPI-Terbium detection buffer (CisBio 61DBTORDF). 50× compound in DMSO was mixed with 16 nM KRAS-acceptor solution and incubated for 30 minutes at room temperature. After compound pre-incubation with KRAS, the RAF1 donor solution was added to the KRAS-acceptor solution and incubated for 1 hour at room temperature. The fluorescence signal emitted was monitored at 665 nm and 615 nm using an Envision multimode plate reader. […]

T1 sequence (P01116 2-169 isoform P01116-2 G12D): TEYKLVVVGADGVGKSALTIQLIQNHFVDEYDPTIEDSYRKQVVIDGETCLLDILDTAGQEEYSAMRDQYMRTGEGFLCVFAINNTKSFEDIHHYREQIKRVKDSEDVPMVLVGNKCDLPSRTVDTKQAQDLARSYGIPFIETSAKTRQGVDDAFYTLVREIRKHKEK
T2 sequence (P01116 with tags, fused parts or gaps isoform P01116-2 G12D): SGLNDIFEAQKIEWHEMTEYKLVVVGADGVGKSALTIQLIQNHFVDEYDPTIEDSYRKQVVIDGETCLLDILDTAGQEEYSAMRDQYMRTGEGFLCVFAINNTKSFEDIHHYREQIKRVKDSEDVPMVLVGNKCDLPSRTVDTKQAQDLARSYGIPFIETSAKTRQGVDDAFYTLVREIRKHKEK

Row | Structure (SMILES) | IC50 [1] [µM] | IC50 (KRAS G12D/RAF1) [µM]
1 | CN(C)C(=O)c1nn2c(c1Cl)CN(c1nc(OC[C@@]34CCCN3C[C@H](F)C4)nc(N3CC4(C3)C(=O)Cc3ccccc34)c1C#N)CCC2 [Compound 37, 3-chloro-5-[5-cyano-2-[[(2R,8S)-2-fluoro-1,2,3,5,6,7-hexahydropyrrolizin-8-yl]methoxy]-6-(2′-oxospiro[azetidine-3,1′-indane]-1-yl)pyrimidin-4-yl]-N,N-dimethyl-4,6,7,8-tetrahydropyrazolo[1,5-a][1,4]diazepine-2-carboxamide] | > 20 | > 100
2 | N#Cc1c(N2CCC(O)C(O)CC2)nc(OC[C@@]23CCCN2C[C@H](F)C3)nc1N1CC2(CCc3sc(N)c(C#N)c32)C1 (stereo partly drawn) [Compound 38, 2-amino-1′-[5-cyano-6-(4,5-dihydroxyazepan-1-yl)-2-[[(2R,8S)-2-fluoro-1,2,3,5,6,7-hexahydropyrrolizin-8-yl]methoxy]pyrimidin-4-yl]spiro[5,6-dihydrocyclopenta[b]thiophene-4,3′-azetidine]-3-carbonitrile] | 0.01 to 0.1 | 1 to 10
3 | N#Cc1c(N2C[C@H]3CC[C@@H](C2)N3)nc(OCC2(CN3CCOCC3)CC2)nc1N1CC2(CCc3sc4[nH]cnc(=O)c4c32)C1 [Compound 39, 2-[[1-(morpholinomethyl)cyclopropyl]methoxy]-4-(12-oxospiro[7-thia-9,11-diazatricyclo[6.4.0.02,6]dodeca-1(8), 2(6), 10-triene-3,3′-azetidine]-1′-yl)-6-[(1R,5S)-3,8-diazabicyclo[3.2.1]octan-3-yl]pyrimidine-5-carbonitrile] | 0.1 to 1 | > 100
4 | CN(C)C(=O)c1nn2c(c1Cl)CN(c1nc(OC[C@@]34CCCN3C[C@H](F)C4)nc(N3CC4(CCc5sc6[nH]cnc(=O)c6c54)C3)c1C#N)CCC2 [Compound 44, 3-chloro-5-[5-cyano-2-[[(2R,8S)-2-fluoro-1,2,3,5,6,7-hexahydropyrrolizin-8-yl]methoxy]-6-(12-oxospiro[7-thia-9,11-diazatricyclo[6.4.0.02,6]dodeca-1(8), 2(6), 10-triene-3,3′-azetidine]-1′-yl)pyrimidin-4-yl]-N,N-dimethyl-4,6,7,8-tetrahydropyrazolo[1,5-a][1,4]diazepine-2-carboxamide] | 1 to 20 | > 100
5 | N#Cc1c(N2C[C@H]3CC[C@@H](C2)N3)nc(OCC2(CN3CCOCC3)CC2)nc1N1CC2(C1)C(=O)CCc1ccccc12 [Compound 50, 4-[(1R,5S)-3,8-diazabicyclo[3.2.1]octan-3-yl]-2-[[1-(morpholinomethyl)cyclopropyl]methoxy]-6-(2′-oxospiro[azetidine-3,1′-tetralin]-1-yl)pyrimidine-5-carbonitrile] | 1 to 20 | > 100
6 | N#Cc1c(N)sc2c1C1(CC2)CN(c2nc(OC[C@@]34CCCN3C[C@H](F)C4)nc(N3CCCC(C#N)CC3)c2F)C1 (stereo partly drawn) [Compound 51, 2-amino-1′-[6-(4-cyanoazepan-1-yl)-5-fluoro-2-[[(2R,8S)-2-fluoro-1,2,3,5,6,7-hexahydropyrrolizin-8-yl]methoxy]pyrimidin-4-yl]spiro[5,6-dihydrocyclopenta[b]thiophene-4,3′-azetidine]-3-carbonitrile] | 0.01 to 0.1 | 1 to 10
7 | N#Cc1c(N2C[C@H]3CC[C@@H](C2)N3)nc(OCC2(CN3CCOCC3)CC2)nc1N1CC2(C1)c1ccccc1CCC2O (stereo partly drawn) [Compound 53, 4-[(1R,5S)-3,8-diazabicyclo[3.2.1]octan-3-yl]-6-(2′-hydroxyspiro[azetidine-3,1′-tetralin]-1-yl)-2-[[1-(morpholinomethyl)cyclopropyl]methoxy]pyrimidine-5-carbonitrile] | 0.1 to 1 | > 100
8 | N#CNC1CCCN(c2nc(OC[C@@]34CCCN3C[C@H](F)C4)nc(N3CC4(CCc5sc(N)c(C#N)c54)C3)c2F)C1 (stereo partly drawn) [Compound 54, [1-[6-(2-amino-3-cyano-spiro[5,6-dihydrocyclopenta[b]thiophene-4,3′-azetidine]-1′-yl)-5-fluoro-2-[[(2R,8S)-2-fluoro-1,2,3,5,6,7-hexahydropyrrolizin-8-yl]methoxy]pyrimidin-4-yl]-3-piperidyl]cyanamide] | 0.1 to 1 | 0.1 to 1
9 | N#Cc1c(N2CCn3nncc3C2)nc(OC[C@@]23CCCN2C[C@H](F)C3)nc1N1CC2(CCc3sc(N)c(C#N)c32)C1 [Compound 55, 2-amino-1′-[5-cyano-6-(6,7-dihydro-4H-triazolo[1,5-a]pyrazin-5-yl)-2-[[(2R,8S)-2-fluoro-1,2,3,5,6,7-hexahydropyrrolizin-8-yl]methoxy]pyrimidin-4-yl]spiro[5,6-dihydrocyclopenta[b]thiophene-4,3′-azetidine]-3-carbonitrile] | 0.1 to 1 | 10 to 100
10 | N#Cc1c(N2C[C@H]3CC[C@@H](C2)N3)nc(OCC2(CN3CCC(F)(F)CC3)CC2)nc1N1CC2(CCCc3sc(N)c(C#N)c32)C1 [Compound 56, 2-amino-1′-[5-cyano-6-[(1R,5S)-3,8-diazabicyclo[3.2.1]octan-3-yl]-2-[[1-[(4,4-difluoro-1-piperidyl)methyl]cyclopropyl]methoxy]pyrimidin-4-yl]spiro[6,7-dihydro-5H-benzothiophene-4,3′-azetidine]-3-carbonitrile] | < 0.01 | 0.1 to 1
